Test results reported in patent US20230087994A1, “TARGETED BIFUNCTIONAL DEGRADERS” (YALE UNIVERSITY, priority 2019, published 2023).

Columns and labels:
[1] = target: T1, asialoglycoprotein receptor (ASGPR) on the surface of immortalized human hepatocyte HepG2 cells (human) (UniProt P07306); assay: competition, flow cytometry: inhibition of DNP-GN3-mediated association of fluorescent α-DNP antibody with HepG2 cells in suspension (ASGPR on cells)
T1 sequence (looked up) 1: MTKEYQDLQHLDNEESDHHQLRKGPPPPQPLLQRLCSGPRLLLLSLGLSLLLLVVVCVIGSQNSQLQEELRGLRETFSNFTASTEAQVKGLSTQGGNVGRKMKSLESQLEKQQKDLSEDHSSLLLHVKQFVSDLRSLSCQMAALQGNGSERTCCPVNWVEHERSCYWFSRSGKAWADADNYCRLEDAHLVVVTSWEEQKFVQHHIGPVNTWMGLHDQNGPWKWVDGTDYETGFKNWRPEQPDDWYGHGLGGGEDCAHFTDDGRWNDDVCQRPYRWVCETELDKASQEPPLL
T1 sequence (looked up) 2: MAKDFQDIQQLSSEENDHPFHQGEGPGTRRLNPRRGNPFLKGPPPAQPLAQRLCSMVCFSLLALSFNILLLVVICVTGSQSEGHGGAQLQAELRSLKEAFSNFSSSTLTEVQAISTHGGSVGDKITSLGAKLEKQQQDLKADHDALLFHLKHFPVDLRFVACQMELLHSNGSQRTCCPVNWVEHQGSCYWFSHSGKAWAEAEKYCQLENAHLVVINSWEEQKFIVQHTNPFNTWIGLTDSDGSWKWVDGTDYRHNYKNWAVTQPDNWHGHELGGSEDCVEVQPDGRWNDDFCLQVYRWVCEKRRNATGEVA

[2] = target: T1, asialoglycoprotein receptor (ASGPR) on the surface of immortalized human hepatocyte HepG2 cells (human); assay: competition, flow cytometry on HepG2 cells against 40 nM DNP-AF3 and 100 nM α-DNP antibody
[3] = target: T1, asialoglycoprotein receptor (ASGPR) on the surface of immortalized human hepatocyte HepG2 cells (human); assay: cell-based or functional assay
[4] = system: HepG2 cells; assay: DNP-GN3-mediated endocytosis of fluorescently labeled α-DNP antibody by adherent HepG2 cells; format: cell-based, human; conditions: competitive binders at high concentrations; FIG. 88
[5] = system: HepG2 cells; assay: DNP-AF3-mediated endocytosis of fluorescently labeled α-DNP antibody by HepG2 cells (flow cytometry); format: cell-based, human; conditions: 40 nM DNP-AF3, 100 nM antibody; ASF 2.07 μM; AF and GalNAc 1.25 mM; FIG. 105
Method: The intracellular fluorescence of cells that were incubated at 37° C. with both fluorescently labeled α-DNP antibody and DNP-AF3 for a given amount of time was examined. Cells were then washed, removed from the plate with trypsin, and subjected to flow cytometry. Trypsin treatment is expected to cleave ASGPR and surface-bound α-DNP antibody from cells, and therefore the cellular fluorescence observed in these assays is expected to arise only from internalized antibodies.
It was then determined if reagents which inhibit ternary complex formation inhibit endocytosis mediated by DNP-AF3. In order to account for non-specific antibody association with cells, the mean fluorescence intensity of an aliquot of cells which had been treated with α-DNP antibody but not DNP-AF3 was subtracted from each reading. […] In the presence of 2.38 μM (0.1 mg/mL) ASOR, the cell population fluorescence was decreased to 4.66e5 (FIG. 105); at this ASOR concentration, ternary complex formation is decreased by approximately 70%. Because ternary complex is not inhibited completely at this concentration of ASOR, it is expected that productive endocytic events are still taking place.

[6] = target: T2, ASGPR on the surface of immortalized human hepatocyte HepG2 cells (Homo sapiens, UniProt P07306+P07307); assay: DNP-GN3-mediated ternary complex formation: association of fluorescently labeled α-DNP antibody with HepG2 cells in suspension; format: cell-based
T2 sequence (P07306 1-291): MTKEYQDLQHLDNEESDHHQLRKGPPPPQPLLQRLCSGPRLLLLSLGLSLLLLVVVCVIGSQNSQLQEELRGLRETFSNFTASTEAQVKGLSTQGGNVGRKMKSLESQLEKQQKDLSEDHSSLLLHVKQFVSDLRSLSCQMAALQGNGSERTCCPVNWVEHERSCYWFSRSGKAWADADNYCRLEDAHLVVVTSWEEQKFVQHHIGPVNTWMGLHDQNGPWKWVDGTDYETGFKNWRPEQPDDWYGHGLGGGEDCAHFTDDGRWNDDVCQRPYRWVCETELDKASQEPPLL
T2 sequence (P07307 1-311): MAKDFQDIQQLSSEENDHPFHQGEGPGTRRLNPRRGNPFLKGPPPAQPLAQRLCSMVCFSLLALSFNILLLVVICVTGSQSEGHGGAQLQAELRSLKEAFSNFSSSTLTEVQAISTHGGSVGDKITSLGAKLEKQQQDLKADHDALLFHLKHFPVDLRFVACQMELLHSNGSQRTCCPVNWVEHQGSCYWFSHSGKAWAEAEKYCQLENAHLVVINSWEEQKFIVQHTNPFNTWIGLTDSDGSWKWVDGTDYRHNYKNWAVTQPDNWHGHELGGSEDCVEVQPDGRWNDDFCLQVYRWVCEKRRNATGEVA
Excerpt: It was investigated whether DNP-GN3 could mediate the formation of a ternary complex between a fluorescently labeled α-DNP antibody and ASGPR on the surface of immortalized human hepatocyte HepG2 cells in suspension. […] The observed bell-shaped response to DNP-GN3 concentration is consistent with the prozone effect commonly observed in systems wherein a ternary complex is formed.

[7] = target: T3, human MIF (Homo sapiens, UniProt P14174); assay: Depletion of injected recombinant human MIF from serum in mice; format: in vivo; set-up: injected into mice; conditions: control molecules; FIG. 136
T3 sequence (P14174 2-115 limits assumed): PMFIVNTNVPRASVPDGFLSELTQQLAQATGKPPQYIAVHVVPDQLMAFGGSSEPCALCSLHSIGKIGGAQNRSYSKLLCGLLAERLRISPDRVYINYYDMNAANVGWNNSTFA
Method: In vivo human MIF depletion experiments were undertaken to determine whether MIF-GN3 can mediate the depletion of injected recombinant human MIF from serum in mice. Mice were injected with five μg of the human MIF protein. In this experiment, one group of mice was also injected with a single 10 mpk dose of MIF-GN3 along with human MIF protein. It was observed that after four hours, the average level of human MIF in serum in the PBS-treated mice was 1.76 ng/mL (FIG. 134). In mice treated with 10 mpk MIF-GN3, however, the concentration of human MIF in serum was 0.68 ng/mL. One day after the initial injection, human MIF levels had reached background levels for both conditions. […] It was hypothesized that, due to the short half-life of human MIF in serum, investigating human MIF levels at earlier time points may be more informative.
Next, an experiment was performed to determine whether MIF-GN3 could enhance MIF clearance at time points earlier than four hours. Mice were coinjected with recombinant human MIF and 10 mpk MIF-GN3 via either i.p. or i.v. routes. For the PBS control arms, human MIF was injected with PBS. It was observed that in the absence of MIF-GN3, there was a spike in huMIF levels in circulation after 30 minutes (FIG. 135). In the presence of MIF-GN3, however, levels of MIF protein remained low at 30 minutes and no spike in its concentration was observed. By two hours, the levels of human MIF in circulation decreased to background levels. […] In a further experiment, whether an inhibitor of the MIF protein (3w) is able to mediate the protein's depletion from serum was determined. A bifunctional molecule that mediates the depletion of α-DNP antibody from serum was also assayed as a negative control. Neither of these molecules was expected to mediate the formation of a ternary complex between human MIF protein and ASGPR.
In order to confirm that mice injected with one or ten mpk MIF-GN3 had received the injection, and that the observed stability of MIF concentrations in MIF-GN3 treated mice was not the result of injection error, 200 μg of α-DNP antibody was coinjected with the MIF protein in this experiment. […] An investigation of the ability of MIF-GN3 to mediate the depletion of endogenous mouse MIF in vivo was next undertaken. Mice were treated with either PBS or 10 mpk of MIF-GN3. […] One possible explanation for this finding is that MIF protein may be synthesized rapidly, and any increase in degradation mediated by MIF-GN3 may not be of a large enough magnitude to impact the protein's level in serum.

[8] = target: T3, human MIF; assay: Depletion of human MIF from cell culture supernatant (sandwich ELISA); format: cell-based; set-up: host or cells: exogenous protein added to cell culture; conditions: 24 hours; FIG. 128B
Method: The ability of bifunctional MIF-binding molecules to mediate the depletion of human MIF from cell culture was investigated. In these assays, human MIF was present at a concentration of 100 nM, and a sandwich ELISA assay was utilized to measure the concentration of human MIF remaining in the cell culture supernatant. The closely related bifunctional molecules MIF-GN3, MIF-PEG2-GN3, and MIF-PEG4-GN3 were used, as well as the structurally dissimilar molecule MIF-NVS-PEG3-GN3. […] Based on the ease of its synthesis and its efficacy in this experiment, MIF-GN3 was utilized for further studies. It was next investigated whether the MIF inhibitor 3w mediates MIF depletion from cell culture supernatant. […] When cells were treated with 3w, no depletion of exogenous MIF protein was observed after 24 hours (FIG. 128B).

[9] = system: PC3 cells; assay: Human prostate cancer PC3 tumor growth in mice; format: in vivo; conditions: control and comparator arms; FIG. 138
Method: The ability of MIF-GN3 to mediate the depletion of MIF in a therapeutically relevant disease model was investigated. […] An experiment was conducted to determine whether the bifunctional molecule MIF-GN3 can deplete sufficient human MIF from serum to slow PC3 tumor growth. Mice were injected with an aliquot of PC3 cells, and the size of the resultant tumors as well as the levels of human MIF in serum were monitored over five weeks. […] Five weeks after the initial PC3 cell injection, the first of the mice reached maximal tumor size ([…]) and was sacrificed (FIG. 138). […] The decrease in human MIF levels mediated by MIF-GN3 is consistent with a mechanism of action in which MIF-GN3 mediates the depletion and degradation of circulating MIF protein. While the α-MIF antibody would not necessarily be expected to decrease the levels of human MIF, it is possible that the antibody mediates MIF neutralization in a manner which masks its signal as determined by ELISA. Alternatively, the α-MIF antibody may mediate depletion or degradation of huMIF by some endocytic mechanism. Another possible explanation is that the α-MIF antibody decrease serum levels of active human MIF to such an extent at early time points that PC3 cells proliferate much more slowly, and therefore fewer cells are actively secreting human MIF.
Mice were sacrificed when their tumor volumes reached 1000 mm^3. […] At this same time point, less than 25% of the mice in any other arm had survived.

[10] = target: human IgG (fluorescently labeled) (human); assay: cell-based or functional assay

asialoorosomucoid (ligand) showed an IC50 [1] of 17 nM, a percent decrease of ternary complex formation at 2.38 µM (0.1 mg/mL) ASOR [2] of 70% and a mean fluorescence of the HepG2 cell population (DNP-AF3-mediated α-DNP antibody endocytosis) in the presence of 2.38 µM (0.1 mg/mL) ASOR; approximately 1.31e6 without inhibitor (mean fluorescence) [3] of 466000.

`CC(=O)N[C@H]1C(O)O[C@H](CO)[C@H](O)[C@@H]1O` (some centres unmarked) [GalNAc, N-acetylgalactosamine] was tested, and the “effect on DNP-GN3-mediated α-DNP antibody endocytosis” value [4] was “significantly decreased”, the “effect on DNP-AF3-mediated α-DNP antibody endocytosis” value [5] was “significantly decreased cellular fluorescence” and the IC50 [6] was 200000 nM.

`Oc1ccc(-n2cc(-c3ccc4cc(OCCOCCN5CCOCC5)ccc4n3)nn2)cc1F` [Compound 3w, reference compound] was tested, and the “human MIF concentration in serum compared to the PBS control” value [7] was “no significant decreases”, the “depletion of exogenous MIF protein from supernatant” value [8] was “no depletion” and the PC3 tumor growth [9] was “not found to decrease tumor growth”.

With FcIII-BCN-GN3 (peptide) the endocytosis of human IgG by HepG2 cells over time and concentration: most effective FcIII-BCN-GN3 concentration [10] was 1 µM.

B1: asialofetuin (ligand, UniProt P12763 19-359, looked up, species assumed)
Alpha-2-HS-glycoprotein: IPLDPVAGYKEPACDDPDTEQAALAAVDYINKHLPRGYKHTLNQIDSVKVWPRRPTGEVYDIEIDTLETTCHVLDPTPLANCSVRQQTQHAVEGDCDIHVLKQDGQFSVLFTKCDSSPDSAEDVRKLCPDCPLLAPLNDSRVVHAVEVALATFNAESNGSYLQLVEISRAQFVPLPVSVSVEFAVAATDCIAKEVVDPTKCNLLAEKQYGFCKGSVIQKALGGEDVRVTCTLFQTQPVIPQPQPDGAEAEAPSAVPDAAGPTPSAAGPPVASVVVGPSVVAVPLPLHRAHYDLRHTFSGVASVESSSGEAFHVGKTPIVGQPSIPGGPVRLCPGRIRYFKI
modifications: desialylated
For B1, the IC50 [1] was 65 nM.
